# Where two headings read alike, the source gives them in different places. Positions of bridges follow the written chain, without caps; N, C: chain ends. Non-standard residues stand in square brackets, D forms with d. Residues, ends and D or L forms follow the SMILES beside them. *: point of attachment. X1 = CC[C@H](C)CCCCC(=O)*; Dab = NCC[C@H](N)C(=O)O; Butyryl = CCCC(=O)*
# Assays:
# [1] = system: S. aureus (ATCC 29213); assay: MIC determination, broth microdilution; assay type: cell-based, Staphylococcus aureus; settings: for MIC SA: S. aureus ATCC 29213, MHB-II, 37 °C, 18–24 h, triplicate
# Method: (§1) The following bacteria were grown in cation-adjusted Muller-Hinton broth at 37 °C with shaking: A. baumannii (ATCC 19606), E. coli (ATCC 25922), K. pneumoniae (ATCC 13883), P. aeruginosa (ATCC 27853), and S. aureus (ATCC 29213).
# (§2) The MIC experiments were performed in triplicate, as described in Jensen et al.. Briefly, all peptide stock solutions were prepared by dissolving each peptide in Milli-Q water to obtain a concentration of 10 mg/mL. A bacterial concentration of 10^6 CFU/mL was obtained through the dilution of an overnight culture (MHB-II medium). When the overnight culture was prepared, the OD was measured using a spectrophotometer and when an OD value between 0.2 and 0.4 was obtained, the culture was diluted to OD = 0.002. The MIC determination was carried out in 96-well polypropylene microtitre plates. […] A final bacterial inoculum of 5 × 10^5 CFU/mL per well was obtained by adding 50 μL bacterial suspension to the microtiter plates. The plates were incubated at 37 °C for 18–24 h. To verify the CFU, 10 μL of bacteria suspension was transferred to 990 μL 0.9 % saline solution, from which a 10-fold dilution was carried out. Then, 100 μL of the dilution was plated on an LB plate and left for bacterial growth overnight at 37 °C. Colistin and vancomycin were used as the positive controls.
# [2] = system: human erythrocytes; settings: 150 μM peptide; 0.5% (v/v) red blood cell suspension in PBS, 1 h at 37 °C, absorbance 414 nm; melittin positive control, PBS negative control; three wells
# Method: PBS served as the negative control and 5 μM melittin served as the positive control. All melittin solutions were prepared in Protein LoBind Eppendorf tubes to prevent the adsorption of melittin to the inner surface of the tubes.
# Preparation of peptide solutions and melittin: A 5 μM melittin solution in PBS was prepared the day before the hemolysis experiment. First, 150 μL of this solution was transferred to each of the positive control wells and stored in the fume hood to coat the wells. On the day of the experiment, the melittin solution was discarded and the wells were washed with 3 × PBS. A 2.5 μM melittin solution in PBS was prepared and 75 μL was transferred to the wells. PBS (150 μL) was used as the negative control. A solution of each peptide was prepared by dissolving the peptide in 0.5 mL PBS to obtain a concentration of 300 μM. Each peptide solution (150 μL) was transferred to the wells in three wells each in row A, and the plate was diluted down.
# Preparation of the red blood cell suspension: 1 mL of type O- whole blood in citrate was transferred to a cryotube. The whole blood was washed with 3 × PBS; adding 3, 3, and 4 mL of PBS, respectively. In between, the blood was centrifuged for 8 min (3000, 3000, and 4000 rpm, respectively) and the supernatant was removed after each centrifugation. A 0.5% (v/v) blood suspension was prepared by adding 40 μL of the washed blood cells to 8 mL of PBS. Then, 75 μL of the red blood cell suspension was transferred to each well and mixed gently. The plate was sealed and incubated for 1 h at 37 °C. After incubation, the plate was centrifuged at 4000 rpm for 10 min. Afterwards, 60 μL of the supernatant from each well was quickly transferred to an ELISA plate.
# The absorbance was determined at 414 nm, and Equation (1) below was used to calculate the hemolytic activity of the peptides.
# [3] = system: A. baumannii (ATCC 19606); assay type: cell-based, Acinetobacter baumannii
# Method: as §1, §2
# [4] = system: E. coli (ATCC 25922); assay type: cell-based, Escherichia coli
# Method: as §1, §2
# [5] = system: P. aeruginosa (ATCC 27853); assay type: cell-based, Pseudomonas aeruginosa
# Method: as §1, §2
# [6] = system: K. pneumoniae (ATCC 13883); assay type: cell-based, Klebsiella pneumoniae
# Method: as §1, §2
# [7] = Hydrophobicity by analytical RP-HPLC (%B at elution); assay type: physicochemical; settings: chromatographic, analytical reversed-phase HPLC, Waters Symmetry C18 5 μm 4.6 × 250 mm; A: H2O + 0.1% TFA, B: 90:10 ACN-H2O + 0.1% TFA
# Method: Peptide purity was determined as described previously by analytical RP-HPLC using a Waters 717 plus Autosampler, In-line Degasser AF, 600 Controller, and 2996 Photodiode Array Detector; the column used was a Waters Symmetry C18 column (5 μm, 4.6 mm × 250 mm, Milford, MA, USA). An aqueous acetonitrile (ACN) gradient with 0.1% TFA added (mixing eluent A: H2O + 0.1% TFA and eluent B: 90:10 ACN-H2O + 0.1% TFA) was employed using milli-Q water. Preparative RP-HPLC was performed by using a Waters XSelect Peptide CSH C18 OBDTM column (5 μm, 19 mm × 250 mm, Milford, MA, USA) with the same eluents as for analytical HPLC.
# *Hydrophobicity as indicated by the percentage of mobile phase B (%B) at the peak elution time on analytical
# [8] = A. baumannii ATCC 19606, MHB-II, inoculum 5 × 10^5 CFU/mL, 37 °C, 18–24 h, triplicate
# [9] = value in brackets, A. baumannii ATCC 19606, MHB-II, 37 °C, 18–24 h, triplicate
# [10] = E. coli ATCC 25922, MHB-II, inoculum 5 × 10^5 CFU/mL, 37 °C, 18–24 h, triplicate
# [11] = value in brackets, E. coli ATCC 25922, MHB-II, 37 °C, 18–24 h, triplicate
# [12] = P. aeruginosa ATCC 27853, MHB-II, inoculum 5 × 10^5 CFU/mL, 37 °C, 18–24 h, triplicate
# [13] = value in brackets, P. aeruginosa ATCC 27853, MHB-II, 37 °C, 18–24 h, triplicate
# [14] = K. pneumoniae ATCC 13883, MHB-II, inoculum 5 × 10^5 CFU/mL, 37 °C, 18–24 h, triplicate
# [15] = value in brackets, K. pneumoniae ATCC 13883, MHB-II, 37 °C, 18–24 h, triplicate
Compound,MIC SA ([1]; inoculum 5 × 10^5 CFU/mL) [µg/mL],"MIC ([1]; Staphylococcus aureus, ATCC29213, read-out: MIC SA) [µM]",% hemolysis of human erythrocytes [2] [%],"MIC AB [3, 8] [µg/mL]","MIC AB [3, 9] [µM]","MIC EC [4, 10] [µg/mL]","MIC EC [4, 11] [µM]","MIC PA [5, 12] [µg/mL]","MIC PA [5, 13] [µM]","MIC KP [6, 14] [µg/mL]","MIC KP [6, 15] [µM]",MIC SA ([1]; value in brackets) [µM],%B (hydrophobicity: percentage of mobile phase B at the peak elution time) [7] [%B],MIC AB ([3]; ATCC 19606) [µM],MIC EC ([4]; ATCC 25922) [µM],MIC PA ([5]; ATCC 27853) [µM],MIC KP ([6]; ATCC 13883) [µM]
"CN[C@H](CC(C)C)C(=O)N[C@H]1C(=O)N[C@@H](CC(N)=O)C(=O)N[C@H]2C(=O)N[C@H]3C(=O)N[C@H](C(=O)N[C@H](C(=O)O)c4cc(O)cc(O)c4-c4cc3ccc4O)[C@H](O)c3ccc(c(Cl)c3)Oc3cc2cc(c3O[C@@H]2O[C@H](CO)[C@@H](O)[C@H](O)[C@H]2O[C@H]2C[C@](C)(N)[C@H](O)[C@H](C)O2)Oc2ccc(cc2Cl)[C@H]1O [Vancomycin, reference compound]",0.5,0.35,,,,,,,,,,,,,,,
CC[C@@H](C)[C@@H](NC(=O)[C@@H](CCCCN)NC(=O)[C@@H](CCCCN)NC(=O)[C@@H](Cc1ccccc1)NC(=O)[C@@H](CC(C)C)NC(=O)[C@@H](CCCCN)NC(=O)[C@H](N)CCCCN)C(=O)N1CCCC[C@H](C(N)=O)NC(=O)[C@@H](Cc2ccc(O)cc2)NC(=O)[C@@H](CCCNC(=N)N)NC(=O)[C@@H](CC(C)C)NC(=O)C1 [compound 8],> 64,,3,> 64,> 42.6,> 64,> 42.6,> 64,> 42.6,> 64,> 42.6,> 42.6,,,,,
CCCCCCCCCCCC(=O)N[C@H](CCCCN)C(=O)N[C@H](CCCCN)C(=O)N[C@H](CC(C)C)C(=O)N[C@H](Cc1ccccc1)C(=O)N[C@H](CCCCN)C(=O)N[C@H](CCCCN)C(=O)N1CCCC[C@H](C(N)=O)NC(=O)[C@@H](Cc2ccc(O)cc2)NC(=O)[C@@H](CCCNC(=N)N)NC(=O)[C@@H](CC(C)C)NC(=O)[C@@H]([C@H](C)CC)NC(=O)C1 [compound 17],4,,,4,2.4,8,4.7,8,4.8,,,2.4,65.5,,,,
CCCCCCCCCCCC(=O)N[C@H](CCCCN)C(=O)N[C@H](CCCCN)C(=O)N[C@H](CC(C)C)C(=O)N[C@H](Cc1ccccc1)C(=O)N[C@H](CCCCN)C(=O)N[C@H](CCCCN)C(=O)N[C@@H](C(=O)N[C@H](CC(C)C)C(=O)N1CCCC[C@H](C(N)=O)NC(=O)[C@@H](Cc2ccc(O)cc2)NC(=O)[C@@H](CCCNC(=N)N)NC(=O)C1)[C@H](C)CC [compound 11],4,,,4,2.3,4,2.3,4,2.3,8,4.6,2.3,66.2,,,,
"CC[C@H](C)CCCCC(=O)N[C@@H](CCN)C(=O)N[C@H](C(=O)N[C@@H](CCN)C(=O)N[C@H]1CCNC(=O)[C@H]([C@@H](C)O)NC(=O)[C@H](CCN)NC(=O)[C@H](CCN)NC(=O)[C@H](CC(C)C)NC(=O)[C@@H](CC(C)C)NC(=O)[C@H](CCN)NC1=O)[C@@H](C)O [Colistin, reference compound] (X1-[Dab]T[Dab][Dab][Dab][dL]L[Dab][Dab]T; lactam 4-C (inferred); N-terminus assumed)",,,,0.25,,0.25,,0.5,,0.5,,,,0.2,0.2,0.4,0.4
CCCC(=O)N[C@H](CCCCN)C(=O)N[C@H](CCCCN)C(=O)N[C@H](CC(C)C)C(=O)N[C@H](Cc1ccccc1)C(=O)N[C@H](CCCCN)C(=O)N[C@H](CCCCN)C(=O)N[C@@H](C(=O)N[C@H](CC(C)C)C(=O)N[C@H](CCCNC(=N)N)C(=O)N[C@H](Cc1ccc(O)cc1)C(=O)N[C@H](CC(C)C)C(N)=O)[C@H](C)CC [compound 1] (Butyryl-[dK][dK][dL][dF][dK][dK][dI][dL][dR][dY][dL]-NH2),64,,100,2,1.3,2,1.3,32,21.1,4,2.6,42.1,,,,,
CCCCCCCCCCCC(=O)N[C@H](CCCCN)C(=O)N[C@H](CCCCN)C(=O)N[C@H](CC(C)C)C(=O)N[C@H](Cc1ccccc1)C(=O)N[C@H](CCCCN)C(=O)N[C@H](CCCCN)C(=O)N[C@@H](C(=O)N1CCCC[C@H](C(N)=O)NC(=O)[C@@H](Cc2ccc(O)cc2)NC(=O)[C@@H](CCCNC(=N)N)NC(=O)[C@@H](CC(C)C)NC(=O)C1)[C@H](C)CC [compound 14],4,,,4,2.4,4,2.4,4,2.4,16,9.5,2.4,65.1,,,,
CCCCCCCCCCCCCC(=O)N[C@H](CCCCN)C(=O)N[C@H](CCCCN)C(=O)N[C@H](CC(C)C)C(=O)N[C@H](Cc1ccccc1)C(=O)N[C@H](CCCCN)C(=O)N[C@H](CCCCN)C(=O)N[C@@H](C(=O)N[C@H](CC(C)C)C(=O)N1CCCC[C@H](C(N)=O)NC(=O)[C@@H](Cc2ccc(O)cc2)NC(=O)[C@@H](CCCNC(=N)N)NC(=O)C1)[C@H](C)CC [compound 12],8,,,16,9.3,8,4.6,16,9.3,4,2.3,4.6,70.0,,,,
CCCCCCCCCCCCCC(=O)N[C@H](CCCCN)C(=O)N[C@H](CCCCN)C(=O)N[C@H](CC(C)C)C(=O)N[C@H](Cc1ccccc1)C(=O)N[C@H](CCCCN)C(=O)N[C@H](CCCCN)C(=O)N1CCCC[C@H](C(N)=O)NC(=O)[C@@H](Cc2ccc(O)cc2)NC(=O)[C@@H](CCCNC(=N)N)NC(=O)[C@@H](CC(C)C)NC(=O)[C@@H]([C@H](C)CC)NC(=O)C1 [compound 18],4,,,4,2.3,8,4.6,16,9.3,32,18.7,2.3,78.5,,,,

# Source: paper PMC9404711 (Antibiotics, 2022)
